In patent publication US20230226198A1, “Artemisinin Derivatives” (DA ZEN THERANOSTICS, INC., priority 2019, published 2023):
Like-named read-outs stand apart in the source and are kept apart here.

Columns and labels:
C4-2B MDVR cells = experiment: Seahorse XF mitochondrial function (OCR/ECAR); format: cell-based, human; conditions: 5 uM, over 12 hours
Description: Example 5 C: To determine mitochondrial function of cancer cells (here C4-2B MDVR), the cells are treated with vehicle, DZ (5 uM), DHA (5 uM), and DZ-003 (5 uM) over 12 hours, and the oxygen consumption rate (OCR) from respiration and extracellular acidification rate (ECAR) from glycolysis of the live cells is determined in a metabolic chamber in a 24-well plate format using a Seahorse XF analyzer (Seahorse XFe24, Agilent, Calif.). Reagents (drugs/controls) are added to the wells just before start of the recording at time 0, and the effect of the drugs on the basal mitochondrial function is recorded by the analyzer for about 12 hours (720 minutes). All reagents used are Agilent reagents. Cells are seeded and cultured in Seahorse XF RPMI Medium, pH 7.4. The seeding rate is 8×10^5 for the cells to reach about 90% confluency within about 24 hours when the analysis is started. The protocol is essentially performed as per the standard protocol of the manufacturer, removing the medium, washing the cells once with XF Real-Time ATP Rate Assay Medium, then starting the measurement as per the instrument's pre-programming and subsequent real-time measurements of OCAR/ECAR. Preliminary experiments indicate that the THAD as described herein may have an increased effect compared to DZ3a.

[1] = tested on: MDVR cells (Enzalutamide-resistant C4-2B prostate cancer cells); experiment: MTT cell viability / IC50 assay, MDVR; format: cell-based; conditions: Homo sapiens
Description: (§1) Cell culture: In the following examples, unless otherwise specified, all cell lines are purchased from American Type Culture Collection and cultured in American Type Culture Collection (ATCC)-recommended media, with fetal bovine serum (FBS) to a final concentration of 10% and 1× penicillin/streptomycin at 37° C. with 5% CO2 in a cell culture incubator, unless otherwise specified. Unless otherwise specified, culture is 2D. Where culture is 3D, low attachment plates are used, with the same media. C4-2B (ATCC® CRL-3315™, human prostate cancer cells of epithelial morphology) parental cell line and drug-resistant cells derived therefrom) are cultured in RPMI-1640 with 10% FBS. MDVR cells (an Enzalutamide-resistant variety of C4-2B prostate cancer cells formed as described below) are cultured as indicated for the parental C4-2B cells. Caki-1 cells (human clear cell renal cell carcinoma cells) are cultured in ATCC-formulated McCoy's 5a Medium Modified (ATCC Catalog No. 30-2007) with 10% FBS. PC3 cells (ATCC® CRL-1435™, a human prostate cancer cell line of epithelial morphology initiated from a bone metastasis of a grade IV prostatic adenocarcinoma) are cultured in F-12K with 10% FBS. 22RV1 Prostate Cancer (PC) cells (ATCC® CRL-2505™, a human prostate carcinoma cell line of epithelial morphology) are cultured in RPMI-1640 with 10% FBS. DU145 cells (ATCC® HTB-81™, a human cell line derived from a prostate-originating brain metastase, not detectably hormone sensitive, not expressing prostate antigen; forms adenocarcinoma grade II in nude mice) are cultured in ATCC-formulated Eagle's Minimum Essential Medium (EMEM, Catalog No. 30-2003). H446 cells (ATCC® HTB-171™, a human small cell carcinoma SC lung cancer (SCLC) cell line derived from a metastatic site) are cultured in RPMI-1640 with 10% FBS. H358 cells (ATCC® CRL-5807™, a human non-small cell lung cancer (NSCLC) cell line that expresses protein and RNA of SP-A, the major lung surfactant associated protein, and produces tumors in athymic nude mice) are cultured in RPMI-1640 Medium with 10% FBS. BxPC3 cells (ATCC® CRL-1687™, an adenocarcinoma-derived pancreatic cancer cell line that expresses pancreas cancer specific antigen and carcinoembryonic antigen and forms tumors in nude mice) are cultured in RPMI-1640 with 10% FBS.
Resistant prostate cancer cell lines MDVR and AbiR: MDVR cells are Enzalutamide-resistant cells, AbiR are Abiraterone acetate resistant cells, formed from parental C4-2B prostate cancer cells as follows. A cell assay is performed exposing cells cultured as described above to various drugs indicated below for 72 hours. Parental C4-2B cells are C4-2B non-resistant cells not previously exposed to cancer drugs. Drug-resistant C4-2B cells are created by prolonged exposure to the relevant drug, i.e. Enzalutamide for MDVR, and Abiraterone acetate for AbiR cells, at initially sub-lethal and gradually increasing concentrations until resistance is achieved.
Example 1: A cell assay is performed exposing cells cultured as described above to various drugs indicated below for 24 hours unless otherwise indicated. Each of the cell lines is treated either with a THAD (e.g. DZ-DHA-ether, MI-148-bis-DHA), or for comparison, with the DHA mono-ester “DZ-DHA”; alternatively/additionally, DZ1 and/or unconjugated DHA may serve as comparants. For each cell line, the IC50 is determined for each drug in concentrations from 0 to 100 μM. […] In the controls (not shown in the figures), the cells are exposed to DMSO (vehicle) for a final concentration that equals the highest concentration of the drug tested, to a maximum concentration less than 0.1% v/v. 4 hours before culture end/SDS addition, 10 μL MTT (3-(4,5-Dimethyl-2-thiazolyl)-2,5-diphenyl-2H-tetrazolium bromide, Sigma-Aldrich) is added to wells containing the cells. At the end of culture, 100 μl 10% SDS is added and then the plate containing the cells is placed in a 37° C. cell culture incubator for 8 hours. […]

[2] = tested on: Caki-1 cells (human clear cell renal cell carcinoma cells); experiment: MTT cell viability / IC50 assay, Caki-1; format: cell-based
Description: as §1
Example 1: A cell assay is performed exposing cells cultured as described above to various drugs indicated below for 24 hours unless otherwise indicated. Each of the cell lines is treated either with a THAD (e.g. DZ-DHA-ether, MI-148-bis-DHA), or for comparison, with the DHA mono-ester “DZ-DHA”; alternatively/additionally, DZ1 and/or unconjugated DHA may serve as comparants. For each cell line, the IC50 is determined for each drug in concentrations from 0 to 100 μM. […] In the controls (not shown in the figures), the cells are exposed to DMSO (vehicle) for a final concentration that equals the highest concentration of the drug tested, to a maximum concentration less than 0.1% v/v. 4 hours before culture end/SDS addition, 10 μL MTT (3-(4,5-Dimethyl-2-thiazolyl)-2,5-diphenyl-2H-tetrazolium bromide, Sigma-Aldrich) is added to wells containing the cells. At the end of culture, 100 μl 10% SDS is added and then the plate containing the cells is placed in a 37° C. cell culture incubator for 8 hours. The absorbance density of the supernatant is read on a 96-well microplate reader at wavelength 595 nm. The results of Caki-1 and MDRV are indicated in the table below along with preliminary results for further cancer cell lines (including, e.g., C4-2B, Abi-R, PC3, 22Rv1, DU145, H358, H446, BxPC3), and the corresponding curves are shown in FIG. 2A (Caki-1) and FIG. 2B (MDVR).

[3] = tested on: L858R/T790M EGFR versus wild-type EGFR; conditions: inhibiting phosphorylation of EGFR in cell lines; cited from earlier work
[4] = ENZ-resistant C4-2B cells (MDVR), unit inferred, read-out: IC50 (FIG. 2B description)
[5] = MDVR, 24 hours, relative IC50, read-out: IC50
[6] = Caki-1, 24 hours, relative IC50, read-out: IC50
[7] = Caki-1, unit inferred, read-out: IC50 (FIG. 2A description)

IC50 [1, 4] [nM]	IC50 [1, 5] [nM]	IC50 [2, 6] [nM]	IC50 [2, 7] [nM]	Compound	lowering of OCR (in words) (C4-2B MDVR cells)	potency against L858R/T790M relative to wild-type EGFR [3]
–	–	–	–	CC1(C)C(/C=C/C2=C(Cl)C(=C/C=C3/N(CCCCCC(=O)O)c4ccccc4C3(C)C)/CCC2)=[N+](CCCCS(=O)(=O)[O-])c2ccccc21 [DZ1]	drop much less	–
3470	< 3470	1420	500 to 1500	C[C@@H]1CC[C@H]2[C@@H](C)C(OCCNC(=O)CCCCCN3/C(=C/C=C4\CCCC(/C=C/C5=[N+](CCCCS(=O)(=O)[O-])c6ccccc6C5(C)C)=C4Cl)C(C)(C)c4ccccc43)O[C@@H]3O[C@]4(C)CC[C@@H]1[C@]32OO4 (stereo partly shown) [DZ-DHA-ether]	–	–
< 1000	860	710	500 to 1500	C[C@@H]1CC[C@H]2[C@@H](C)C(OC(=O)CCCCCN3/C(=C/C=C4\CCCC(/C=C/C5=[N+](CCCCCC(=O)OC6O[C@@H]7O[C@]8(C)CC[C@H]9[C@H](C)CC[C@@H]([C@H]6C)[C@@]79OO8)c6ccccc6C5(C)C)=C4Cl)C(C)(C)c4ccccc43)O[C@@H]3O[C@]4(C)CC[C@@H]1[C@]32OO4 (stereo partly shown) [MHI-148-bis-DHA]	–	–
–	–	–	–	C=CC(=O)Nc1cc(Nc2nccc(-c3cn(C)c4ccccc34)n2)c(OC)cc1N(C)CCN(C)C [Osimertinib]	–	100-200 times
